Entries after “also recorded” stand apart in the source; their conditions may differ.
Assays:
DAAO transgenic plants = test: Germination of DAAO transgenic plants on D-Asn; assay type: in vivo; conditions: 30 mM
From the text: The D-amino acid oxidase of the invention may be expressed in the cytosol, peroxisome, or other intracellular compartment of the plant cell. Compartmentalisation of the D-amino acid metabolising polypeptide may be achieved by fusing the nucleic acid sequence encoding the DAAO polypeptide to a sequence encoding a transit peptide to generate a fusion protein. Gene products expressed without such transit peptides generally accumulate in the cytosol. The localization of expressed DAAO in the peroxisome produces H2O2 that can be metabolised by the H2O2 degrading enzyme catalase. Higher levels of D-amino acids may therefore be required to produce damaging levels of H2O2. Expression of DAAO in the cytosol, where levels of catalase activity are lower, reduces the amount of D-amino acid required to produce damaging levels H2O2. Expression of DAAO in the cytosol may be achieved by removing peroxisome targeting signals or transit peptides from the encoding nucleic acid sequence. For example, the dao1 gene (EC: 1.4.3.3: GenBank Acc.-No.: U60066) from the yeast Rhodotorula gracilis (Rhodosporidium toruloides) was cloned as described (WO 03/060133). The last nine nucleotides encode the signal peptide SKL, which guides the protein to the peroxisome sub-cellular organelle.

[1] = system: wild-type Arabidopsis thaliana; test: Growth of wild-type A. thaliana plantlets on medium with D-amino acids; assay type: in vivo; conditions: for Effect on plant growth (FIG. 3): 3 mM in half-concentrated Murashige-Skoog medium, wild type plantlets; for Growth of wild-type plants on selection media: immediately after the cotyledons had emerged; for Growth of wild-type plants (FIG. 4): various concentrations in half-strength MS, 10 d after germination
Experimental: Wild type Arabidopsis thaliana plantlets were grown on half-concentrated Murashige-Skoog medium (0.5% (wt/vol) sucrose, 0.8% (wt/vol) agar) supplemented with the indicated D-amino acid at either 3 mM (Panel A) or 30 mM (Panel B).
(§1) FIG. 4 D-amino acid dose responses of dao1 transgenic and wild-type A. thaliana. (a-d) Growth of dao1 transgenic line 3:7 (white), 10:7 (light gray), 13:4 (gray) and wild-type (black) plants, in fresh weight per plant, on media containing various concentrations of D-serine, D-alanine, D-isoleucine and D-valine in half-strength MS with 0.5% (wt/vol) sucrose and 0.8% (wt/vol) agar. Different concentration ranges were used for different ID-amino acids. The plants were grown for 10 d after germination under 16 h photoperiods at 24° C.; n=10±s.e.m., except for plants grown on D-isoleucine, where smaller Petri dishes were used, (n=6±s.e.m.).
(§2) T1 seeds of transgenic Arabidopsis plants were surface-sterilized and sown in Petri plates that were sealed with gas-permeable tape. The growth medium was half strength MS19 with 0.5% (wt/vol) sucrose and 0.8% (wt/vol) agar, plus 3 mM D-alanine, 3 mM D-serine or 50 μg/ml kanamycin as the selective agent. Plants were grown for 5 d after germination with a 16 h photoperiod at 24° C. To evaluate the selection efficiency on different substrates, 2,074, 1,914 and 1,810 T1 seeds were sown on D-alanine-, D-serine- and kanamycin-selective plates, respectively, and the number of surviving seedlings was counted (44, 32 and 43, respectively).

[2] = system: T1 seeds of transgenic Arabidopsis plants; test: Selection of T1 seeds on selective media; assay type: in vivo; conditions: for Number of surviving seedlings: 2,074, 1,914 and 1,810 T1 seeds sown on D-alanine (3 mM), D-serine (3 mM) and kanamycin (50 μg/ml) plates, 5 d after germination; for Transformation frequencies found on the selective media: kanamycin 50 μg/ml, D-alanine 3 mM, D-serine 3 mM
Experimental: as §2
(§3) The T-DNA contained both 35S:dao1 and pNos:nptII, allowing D-amino acid and kanamycin selection to be compared in the same lot of seeds.

A. thaliana = test: Growth and toxicity tests on A. thaliana (genotype not stated); assay type: in vivo; conditions: for Effect on growth of A. thaliana: in vivo
From the text: (§4) Presumably endogenous transaminase may be specific for the L-enantiomer, so the corresponding D-enantiomer is not metabolized in wildtype plants, but only in plants expressing DAAO. […] The toxicity of some D-amino acids on organisms is not well understood, and has only occasionally been studied in plants (Gamburg K Z & Rekoslavskaya N I (1991) Fiziologiya Rastenii 38, 1236-1246). Apart from A. thaliana, we have also tested the susceptibility of other plant species to D-serine, including poplar, tobacco, barley, maize, tomato and spruce. We found all tested species susceptible to D-serine at concentrations similar to those shown to be toxic for A. thaliana. A proposed mechanism for D-serine toxicity in bacteria is competitive inhibition of […] coupling to pantoic acid, thus inhibiting formation of pantothenic acid (Cosloy S D & McFall E (1973) J. Bacteriol. 114, 685-694). […] A second putative cause of D-amino acid toxicity is through competitive binding to tRNA. […] Genes similar to that encoding bacterial deacylase have also been identified. in A. thaliana (Soutourina J et al. (1996) J. Biol. Chem. 274, 19109-19114), corroborating the possibility that the mode of toxic action of D-amino acids might be through competitive binding to tRNA.

wild-type seedlings = test: Sprayed (foliar) application on wild-type seedlings; assay type: in vivo, A. thaliana; conditions: one-week-old seedlings, sprayed on three consecutive days, 50 mM
From the text: (§5) Selection of seedlings on media containing D-alanine or D-serine was very rapid compared to selection on kanamycin. […] Therefore, transformants could be distinguished from non-transformed plants directly after germination. The difference between wild-type and transgenic plants after D-amino acid selection was unambiguous, with no intermediate phenotypes. In contrast, intermediate phenotypes are common when kanamycin resistance is used as a selection marker. […] Transgenic seedlings were resistant to foliar application of D-alanine or D-serine, so selection on soil was possible.

Transgenic seedlings = test: Foliar application on transgenic seedlings; parameters: species or system A. thaliana; conditions: in vivo
From the text: as §5

[3] = system: dao1 transgenic A. thaliana; test: Growth of dao1 (DAAO) transgenic A. thaliana on medium with D-amino acids; assay type: in vivo, Arabidopsis thaliana; conditions: for Effect on the transgenic plants: concentration of 30 mM; for Development of transgenic plants under selection conditions: in vivo
Experimental: as §1, §2, §3
Therefore, plants containing the construct were tested as described above on two sets of media, one containing D-isoleucine and the other containing D-valine at various concentrations, to assess whether DAAO could also be used as a counter-selection marker. Unambiguous counter-selection selection was achieved when seeds were sown on either D-isoleucine or D-valine at concentrations greater than 10 mM (FIG. 4 c,d).

DAAO = target: T1, DAAO (Rhodotorula toruloides, UniProt P80324); test: DAAO incubation of cell-free plant extracts, keto acid production by HPLC; assay type: biochemical, Rhodotorula gracilis; conditions: cell-free extracts from dao1 transgenic line 10:7
T1 construct: expressed in transfected cells; host or cells: Arabidopsis thaliana (Col-0), dao1 transgenic line 10:7, transformed with pPCV702:dao1 (CaMV 35S); crude soluble protein extract
T1 sequence (P80324 25-368): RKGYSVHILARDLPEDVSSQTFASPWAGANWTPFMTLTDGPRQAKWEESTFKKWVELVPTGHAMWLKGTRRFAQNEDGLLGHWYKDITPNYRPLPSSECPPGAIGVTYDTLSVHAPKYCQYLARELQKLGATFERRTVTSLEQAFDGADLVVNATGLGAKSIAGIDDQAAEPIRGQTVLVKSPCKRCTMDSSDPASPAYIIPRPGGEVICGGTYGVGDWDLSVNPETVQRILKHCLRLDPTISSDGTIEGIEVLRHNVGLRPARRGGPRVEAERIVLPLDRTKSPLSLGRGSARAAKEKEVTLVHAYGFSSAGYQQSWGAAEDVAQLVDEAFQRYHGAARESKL
Experimental: Soluble proteins were extracted by shaking 0.1 g samples of plant material that had been finely pulverized in a 1.5 ml Eppendorf tube in 1 ml of 0.1 M potassium phosphate buffer, pH 8. DAAO activity was then assayed as follows. Reaction mixtures were prepared containing 2,120 μl of 0.1 M potassium phosphate buffer, pH 8, 80 μl of crude protein extract and 100 μl of 0.3 M D-alanine. The samples were incubated for 2 h at 30° C. The enzyme activity was then assessed, by measuring the increase in absorbance at 220 nm (E=1.090 M^−1 cm^−1) associated with the conversion of D-alanine to pyruvate, after transferring the test tubes to boiling water for […] to stop the reaction. In control reactions, D-alanine was added immediately before boiling. One unit of DAAO activity is defined as the turnover of one micromole of substrate per minute, and activity was expressed per gram plant biomass (fresh weight). The breakdown of D-isoleucine and D-valine in DAAO incubations, and the associated production of 3-methyl-2-oxopentanoate and 3-methyl-2-oxobutanoate, were analyzed by high-performance liquid chromatography. In other respects the reactions were carried out as described above.
Presumably endogenous transaminase may be specific for the L-enantiomer, so the corresponding D-enantiomer is not metabolized in wildtype plants, but only in plants expressing DAAO. […]

tomato = test: Susceptibility of other plant species to D-serine; assay type: in vivo; conditions: concentrations similar to those toxic for A. thaliana
From the text: as §4

poplar = test: Susceptibility of other plant species to D-serine; assay type: in vivo; conditions: concentrations similar to those toxic for A. thaliana
From the text: as §4

tobacco = test: Susceptibility of other plant species to D-serine; assay type: in vivo; conditions: concentrations similar to those toxic for A. thaliana
From the text: as §4

barley = test: Susceptibility of other plant species to D-serine; assay type: in vivo; conditions: concentrations similar to those toxic for A. thaliana
From the text: as §4

maize = test: Susceptibility of other plant species to D-serine; assay type: in vivo; conditions: concentrations similar to those toxic for A. thaliana
From the text: as §4

spruce = test: Susceptibility of other plant species to D-serine; assay type: in vivo; conditions: concentrations similar to those toxic for A. thaliana
From the text: as §4

## NC(=O)C[C@@H](N)C(=O)O [D-Asn, D-asparagine]
DAAO transgenic plants
  Inhibition of germination of DAAO transgenic plants (cytosolic and peroxisomal constructs): inhibited significantly more than the wild-type

## CC[C@H](C)[C@H](N)C(=O)O [L-isoleucine]
[1]; in vivo
  Effects on wildtype plants: negative effects

## NC[C@H]1O[C@H](O[C@H]2[C@H](O)[C@@H](O[C@H]3O[C@H](CO)[C@@H](O)[C@H](N)[C@H]3O)[C@H](N)C[C@@H]2N)[C@H](O)[C@@H](O)[C@@H]1O [kanamycin]
[2]
  Number of surviving seedlings: 43
  Transformation frequencies found on the selective media: 2.37%

## CCC(C)C(=O)C(=O)O (stereo not drawn) [3-methyl-2-oxopentanoate]
A. thaliana
  Effect on growth of A. thaliana: impaired growth

## C[C@@H](N)C(=O)O [D-alanine]
[1]
  Effect on plant growth (FIG. 3): severe phytotoxic effects
  Growth of wild-type plants on selection media: inhibited growth
  Growth of wild-type plants (FIG. 4): inhibited even at quite low concentrations
[1]; treated with 30 mM
  Effect on wild-type plantlets (FIG. 2): toxic effect
wild-type seedlings
  Effect of sprayed application on wild-type seedlings: effectively killed
Transgenic seedlings
  Response of transgenic seedlings to foliar application: resistant
[2]
  Number of surviving seedlings: 44
  Transformation frequencies found on the selective media: 2.12%
[3]
  Effect on the transgenic plants: no negative effect
  Development of transgenic plants under selection conditions: developed normally
[3]; treated with 30 mM
  Effect on transgenic plantlets comprising DAAO gene (FIG. 2): no severe damage

## CC(C)[C@@H](N)C(=O)O [D-valine]
[1]; higher concentrations
  Effect on wild-type plants at higher concentrations (FIG. 4d): moderately negative effect
[1]
  Growth of wild-type plants (FIG. 4): not toxic; also recorded: minor effects; also recorded: not the wild-type plants
DAAO
  Increase in production of 3-methyl-2-oxobutanoate compared to extracts of wild-type plants: 7 fold
[3]; various concentrations in half-strength MS, 10 d after germination
  Growth of plants expressing DAAO (FIG. 4): strong negative influence on the growth; also recorded: inhibit growth

## N[C@H](CO)C(=O)O [D-serine]
[1]
  Effect on plant growth (FIG. 3): severe phytotoxic effects
  Growth of wild-type plants on selection media: inhibited growth
  Growth of wild-type plants (FIG. 4): inhibited even at quite low concentrations
tomato
  Susceptibility of tomato: susceptible
poplar
  Susceptibility of poplar: susceptible
tobacco
  Susceptibility of tobacco: susceptible
barley
  Susceptibility of barley: susceptible
maize
  Susceptibility of maize: susceptible
spruce
  Susceptibility of spruce: susceptible
wild-type seedlings
  Effect of sprayed application on wild-type seedlings: effectively killed
A. thaliana; pantothenic acid or a-alanine provided
  Mitigation of toxicity in A. thaliana by pantothenic acid or a-alanine: could not be mitigated
Transgenic seedlings
  Response of transgenic seedlings to foliar application: resistant
[2]
  Number of surviving seedlings: 32
  Transformation frequencies found on the selective media: 1.67%
[2]; in vivo
  Concentration at which efficient selection was achieved (FIG. 4a): lower than 1 mM
[3]; 3 mM
  Effect on growth of the transgenic plants: slightly inhibited the growth
[3]
  Effect on the transgenic plants: significant growth inhibition
  Development of transgenic plants under selection conditions: developed normally

## CC(C)C(=O)C(=O)O [3-methyl-2-oxobutanoate, 3-methyl-2-oxobutanoate]
A. thaliana
  Effect on growth of A. thaliana: impaired growth
